Reference: the NIST ThermoML archive (doi:10.1016/j.jct.2006.05.008)
± gives the expanded uncertainty stated by the source.

Assay: molar heat capacity at constant pressure
Details: 101.33 kPa

CCC[n+]1ccn(C)c1.[Br-] [1-methyl-3-propylimidazolium bromide]
Details	molar heat capacity at constant pressure [J/K/mol]
244.42 K, Liquid, Small (less than 1 g) adiabatic calorimetry	265 ± 1.3
244.52 K, Crystal, Vacuum adiabatic calorimetry	198.49 ± 0.4
244.94 K, Crystal, Vacuum adiabatic calorimetry	198.95 ± 0.4
245.29 K, Metastable crystal, Small (less than 1 g) adiabatic calorimetry	199.04 ± 1
245.35 K, Liquid, Small (less than 1 g) adiabatic calorimetry	265.6 ± 1.3
245.89 K, Crystal, Vacuum adiabatic calorimetry	199.57 ± 0.4
246.52 K, Liquid, Small (less than 1 g) adiabatic calorimetry	265.56 ± 1.3
246.54 K, Liquid, Small (less than 1 g) adiabatic calorimetry	266.09 ± 1.3
247.02 K, Crystal, Vacuum adiabatic calorimetry	200.86 ± 0.4
247.27 K, Crystal, Vacuum adiabatic calorimetry	200.82 ± 0.4
247.37 K, Liquid, Small (less than 1 g) adiabatic calorimetry	266.15 ± 1.3
247.66 K, Metastable crystal, Small (less than 1 g) adiabatic calorimetry	201.1 ± 1
248.62 K, Liquid, Small (less than 1 g) adiabatic calorimetry	266.07 ± 1.3
248.65 K, Crystal, Vacuum adiabatic calorimetry	202.17 ± 0.4
248.84 K, Liquid, Small (less than 1 g) adiabatic calorimetry	267.47 ± 1.3
249.1 K, Crystal, Vacuum adiabatic calorimetry	202.81 ± 0.4
249.39 K, Liquid, Small (less than 1 g) adiabatic calorimetry	266.73 ± 1.3
250.02 K, Crystal, Vacuum adiabatic calorimetry	203.57 ± 0.4
250.02 K, Metastable crystal, Small (less than 1 g) adiabatic calorimetry	203.18 ± 1
250.73 K, Liquid, Small (less than 1 g) adiabatic calorimetry	266.58 ± 1.3
251.18 K, Crystal, Vacuum adiabatic calorimetry	204.9 ± 0.41
251.4 K, Crystal, Vacuum adiabatic calorimetry	204.98 ± 0.41
251.41 K, Liquid, Small (less than 1 g) adiabatic calorimetry	267.3 ± 1.3
251.54 K, Crystal, Vacuum adiabatic calorimetry	205.96 ± 0.41
252.37 K, Metastable crystal, Small (less than 1 g) adiabatic calorimetry	205.32 ± 1
252.77 K, Crystal, Vacuum adiabatic calorimetry	206.43 ± 0.41
252.83 K, Liquid, Small (less than 1 g) adiabatic calorimetry	267.16 ± 1.3
253.26 K, Crystal, Vacuum adiabatic calorimetry	207.11 ± 0.41
253.43 K, Liquid, Small (less than 1 g) adiabatic calorimetry	267.81 ± 1.3
254.71 K, Metastable crystal, Small (less than 1 g) adiabatic calorimetry	207.8 ± 1
254.93 K, Liquid, Small (less than 1 g) adiabatic calorimetry	267.63 ± 1.3
255.35 K, Crystal, Vacuum adiabatic calorimetry	209.48 ± 0.41
255.45 K, Liquid, Small (less than 1 g) adiabatic calorimetry	268.35 ± 1.3
257.03 K, Liquid, Small (less than 1 g) adiabatic calorimetry	268.27 ± 1.3
257.05 K, Metastable crystal, Small (less than 1 g) adiabatic calorimetry	210.12 ± 1
257.43 K, Crystal, Vacuum adiabatic calorimetry	211.8 ± 0.41
257.47 K, Liquid, Small (less than 1 g) adiabatic calorimetry	268.84 ± 1.3
259.14 K, Liquid, Small (less than 1 g) adiabatic calorimetry	268.9 ± 1.3
259.38 K, Metastable crystal, Small (less than 1 g) adiabatic calorimetry	212.62 ± 1
259.49 K, Liquid, Small (less than 1 g) adiabatic calorimetry	269.39 ± 1.3
259.52 K, Crystal, Vacuum adiabatic calorimetry	214.55 ± 0.41
260.55 K, Crystal, Vacuum adiabatic calorimetry	216.79 ± 0.41
261.24 K, Liquid, Small (less than 1 g) adiabatic calorimetry	269.33 ± 1.3
261.52 K, Liquid, Small (less than 1 g) adiabatic calorimetry	269.97 ± 1.3
261.6 K, Crystal, Vacuum adiabatic calorimetry	217.5 ± 0.41
261.65 K, Liquid, Small (less than 1 g) adiabatic calorimetry	270.17 ± 1.3
261.69 K, Metastable crystal, Small (less than 1 g) adiabatic calorimetry	215.45 ± 1.1
263.34 K, Liquid, Small (less than 1 g) adiabatic calorimetry	269.95 ± 1.3
263.54 K, Liquid, Small (less than 1 g) adiabatic calorimetry	270.5 ± 1.3
263.69 K, Crystal, Vacuum adiabatic calorimetry	220.52 ± 0.43
263.7 K, Liquid, Small (less than 1 g) adiabatic calorimetry	270.42 ± 1.3
264 K, Metastable crystal, Small (less than 1 g) adiabatic calorimetry	218.39 ± 1.1
265.44 K, Liquid, Small (less than 1 g) adiabatic calorimetry	270.58 ± 1.3
265.56 K, Liquid, Small (less than 1 g) adiabatic calorimetry	271.1 ± 1.3
265.73 K, Liquid, Small (less than 1 g) adiabatic calorimetry	270.91 ± 1.3
265.77 K, Crystal, Vacuum adiabatic calorimetry	223.78 ± 0.43
266.29 K, Metastable crystal, Small (less than 1 g) adiabatic calorimetry	221.46 ± 1.1
267.55 K, Liquid, Small (less than 1 g) adiabatic calorimetry	271.24 ± 1.3
267.58 K, Liquid, Small (less than 1 g) adiabatic calorimetry	271.73 ± 1.3
267.75 K, Liquid, Small (less than 1 g) adiabatic calorimetry	271.67 ± 1.3
267.85 K, Crystal, Vacuum adiabatic calorimetry	227.51 ± 0.43
268.56 K, Metastable crystal, Small (less than 1 g) adiabatic calorimetry	224.85 ± 1.1
269.36 K, Crystal, Vacuum adiabatic calorimetry	231.51 ± 0.43
269.61 K, Liquid, Small (less than 1 g) adiabatic calorimetry	272.26 ± 1.3
269.67 K, Liquid, Small (less than 1 g) adiabatic calorimetry	271.61 ± 1.3
269.77 K, Liquid, Small (less than 1 g) adiabatic calorimetry	272.2 ± 1.3
269.93 K, Crystal, Vacuum adiabatic calorimetry	231.49 ± 0.43
270.71 K, Metastable crystal, Small (less than 1 g) adiabatic calorimetry	224.7 ± 1.1
270.82 K, Metastable crystal, Small (less than 1 g) adiabatic calorimetry	229.03 ± 1.1
271.87 K, Liquid, Small (less than 1 g) adiabatic calorimetry	272.35 ± 1.3
272 K, Crystal, Vacuum adiabatic calorimetry	235.92 ± 0.43
272.05 K, Liquid, Small (less than 1 g) adiabatic calorimetry	273.02 ± 1.3
273.43 K, Metastable crystal, Small (less than 1 g) adiabatic calorimetry	235.43 ± 1.1
273.97 K, Liquid, Small (less than 1 g) adiabatic calorimetry	272.86 ± 1.3
274.08 K, Crystal, Vacuum adiabatic calorimetry	241.07 ± 0.45
274.59 K, Liquid, Small (less than 1 g) adiabatic calorimetry	273.93 ± 1.3
275.18 K, Metastable crystal, Small (less than 1 g) adiabatic calorimetry	235.92 ± 1.1
276.07 K, Liquid, Small (less than 1 g) adiabatic calorimetry	273.68 ± 1.3
276.15 K, Crystal, Vacuum adiabatic calorimetry	246.77 ± 0.45
276.27 K, Metastable crystal, Small (less than 1 g) adiabatic calorimetry	241.56 ± 1.2
277.13 K, Liquid, Small (less than 1 g) adiabatic calorimetry	274.62 ± 1.3
277.85 K, Crystal, Vacuum adiabatic calorimetry	253.97 ± 0.45
278.17 K, Liquid, Small (less than 1 g) adiabatic calorimetry	274.27 ± 1.3
278.22 K, Crystal, Vacuum adiabatic calorimetry	253.72 ± 0.45
279.07 K, Metastable crystal, Small (less than 1 g) adiabatic calorimetry	249.25 ± 1.2
279.67 K, Liquid, Small (less than 1 g) adiabatic calorimetry	275.3 ± 1.3
280.27 K, Liquid, Small (less than 1 g) adiabatic calorimetry	274.91 ± 1.3
281.68 K, Metastable crystal, Small (less than 1 g) adiabatic calorimetry	255.47 ± 1.2
281.81 K, Metastable crystal, Small (less than 1 g) adiabatic calorimetry	258.32 ± 1.2
282.22 K, Liquid, Small (less than 1 g) adiabatic calorimetry	276.12 ± 1.3
282.37 K, Liquid, Small (less than 1 g) adiabatic calorimetry	275.55 ± 1.3
284.47 K, Liquid, Small (less than 1 g) adiabatic calorimetry	276.33 ± 1.3
284.5 K, Metastable crystal, Small (less than 1 g) adiabatic calorimetry	269.64 ± 1.3
284.76 K, Liquid, Small (less than 1 g) adiabatic calorimetry	277 ± 1.3
286.57 K, Liquid, Small (less than 1 g) adiabatic calorimetry	276.88 ± 1.3
287.11 K, Metastable crystal, Small (less than 1 g) adiabatic calorimetry	284.18 ± 1.3
287.31 K, Liquid, Small (less than 1 g) adiabatic calorimetry	277.78 ± 1.3
287.83 K, Metastable crystal, Small (less than 1 g) adiabatic calorimetry	291.75 ± 1.4
288.67 K, Liquid, Small (less than 1 g) adiabatic calorimetry	277.6 ± 1.3
289.86 K, Liquid, Small (less than 1 g) adiabatic calorimetry	278.56 ± 1.3
290.76 K, Liquid, Small (less than 1 g) adiabatic calorimetry	278.25 ± 1.3
292.42 K, Liquid, Small (less than 1 g) adiabatic calorimetry	279.52 ± 1.3
292.85 K, Liquid, Small (less than 1 g) adiabatic calorimetry	278.99 ± 1.3
294.97 K, Liquid, Small (less than 1 g) adiabatic calorimetry	280.39 ± 1.3
297.52 K, Liquid, Small (less than 1 g) adiabatic calorimetry	281.17 ± 1.3
300.09 K, Liquid, Small (less than 1 g) adiabatic calorimetry	282.13 ± 1.3
302.65 K, Liquid, Small (less than 1 g) adiabatic calorimetry	282.97 ± 1.3
305.21 K, Liquid, Small (less than 1 g) adiabatic calorimetry	283.79 ± 1.3
307.77 K, Liquid, Small (less than 1 g) adiabatic calorimetry	284.73 ± 1.3
310.34 K, Liquid, Small (less than 1 g) adiabatic calorimetry	285.68 ± 1.3
312.44 K, Liquid, Small (less than 1 g) adiabatic calorimetry	286.13 ± 1.4
315.01 K, Liquid, Small (less than 1 g) adiabatic calorimetry	287.07 ± 1.4
317.56 K, Liquid, Small (less than 1 g) adiabatic calorimetry	287.97 ± 1.4
320.1 K, Liquid, Small (less than 1 g) adiabatic calorimetry	288.9 ± 1.4
322.63 K, Liquid, Small (less than 1 g) adiabatic calorimetry	289.74 ± 1.4
325.17 K, Liquid, Small (less than 1 g) adiabatic calorimetry	290.68 ± 1.4
327.71 K, Liquid, Small (less than 1 g) adiabatic calorimetry	291.56 ± 1.4
330.24 K, Liquid, Small (less than 1 g) adiabatic calorimetry	292.55 ± 1.4
332.78 K, Liquid, Small (less than 1 g) adiabatic calorimetry	293.41 ± 1.4
335.3 K, Liquid, Small (less than 1 g) adiabatic calorimetry	294.48 ± 1.4
337.83 K, Liquid, Small (less than 1 g) adiabatic calorimetry	295.38 ± 1.4
340.36 K, Liquid, Small (less than 1 g) adiabatic calorimetry	295.97 ± 1.4
342.88 K, Liquid, Small (less than 1 g) adiabatic calorimetry	296.86 ± 1.4
345.4 K, Liquid, Small (less than 1 g) adiabatic calorimetry	297.86 ± 1.4
347.92 K, Liquid, Small (less than 1 g) adiabatic calorimetry	298.8 ± 1.4
350.44 K, Liquid, Small (less than 1 g) adiabatic calorimetry	299.62 ± 1.4
352.95 K, Liquid, Small (less than 1 g) adiabatic calorimetry	300.4 ± 1.4
355.46 K, Liquid, Small (less than 1 g) adiabatic calorimetry	301.37 ± 1.4
357.97 K, Liquid, Small (less than 1 g) adiabatic calorimetry	302.27 ± 1.4
359.15 K, Liquid, Small (less than 1 g) adiabatic calorimetry	302.7 ± 1.4
360.47 K, Liquid, Small (less than 1 g) adiabatic calorimetry	303.23 ± 1.4
361.69 K, Liquid, Small (less than 1 g) adiabatic calorimetry	304.73 ± 1.4
362.97 K, Liquid, Small (less than 1 g) adiabatic calorimetry	304.73 ± 1.4
364.23 K, Liquid, Small (less than 1 g) adiabatic calorimetry	305.78 ± 1.4
366.73 K, Liquid, Small (less than 1 g) adiabatic calorimetry	305.51 ± 1.4
